Results as given in ChEMBL document CHEMBL3991601, “The target landscape of clinical kinase drugs” (Science, 2017).
Activity calls are given as the source filed them. Cut-off read from the data, not from the text of the source: actives have a measured Kd and inactives only a lower limit.

What was measured:
[1] = biological target: TRAF2 and NCK-interacting protein kinase (Homo sapiens, UniProt Q9UKE5)
Activin receptor type-1B = biological target: T1, Activin receptor type-1B (Homo sapiens, UniProt P36896)
T1 sequence (P36896 whole entry): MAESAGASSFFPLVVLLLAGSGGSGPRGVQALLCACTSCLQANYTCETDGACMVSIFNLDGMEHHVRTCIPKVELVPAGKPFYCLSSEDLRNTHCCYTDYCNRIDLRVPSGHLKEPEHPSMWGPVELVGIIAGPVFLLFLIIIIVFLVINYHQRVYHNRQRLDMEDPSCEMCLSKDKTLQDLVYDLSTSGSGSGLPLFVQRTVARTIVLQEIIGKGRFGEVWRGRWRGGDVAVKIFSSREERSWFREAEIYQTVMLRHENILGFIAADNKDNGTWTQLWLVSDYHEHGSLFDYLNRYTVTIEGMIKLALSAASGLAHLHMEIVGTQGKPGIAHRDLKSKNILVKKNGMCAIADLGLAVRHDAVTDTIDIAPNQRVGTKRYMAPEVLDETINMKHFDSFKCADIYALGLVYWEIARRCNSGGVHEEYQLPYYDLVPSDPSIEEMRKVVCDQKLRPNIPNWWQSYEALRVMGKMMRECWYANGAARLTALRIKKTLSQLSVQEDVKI

Ephrin type-A receptor 1 = biological target: T2, Ephrin type-A receptor 1 (Homo sapiens, UniProt P21709)
T2 sequence (P21709 whole entry): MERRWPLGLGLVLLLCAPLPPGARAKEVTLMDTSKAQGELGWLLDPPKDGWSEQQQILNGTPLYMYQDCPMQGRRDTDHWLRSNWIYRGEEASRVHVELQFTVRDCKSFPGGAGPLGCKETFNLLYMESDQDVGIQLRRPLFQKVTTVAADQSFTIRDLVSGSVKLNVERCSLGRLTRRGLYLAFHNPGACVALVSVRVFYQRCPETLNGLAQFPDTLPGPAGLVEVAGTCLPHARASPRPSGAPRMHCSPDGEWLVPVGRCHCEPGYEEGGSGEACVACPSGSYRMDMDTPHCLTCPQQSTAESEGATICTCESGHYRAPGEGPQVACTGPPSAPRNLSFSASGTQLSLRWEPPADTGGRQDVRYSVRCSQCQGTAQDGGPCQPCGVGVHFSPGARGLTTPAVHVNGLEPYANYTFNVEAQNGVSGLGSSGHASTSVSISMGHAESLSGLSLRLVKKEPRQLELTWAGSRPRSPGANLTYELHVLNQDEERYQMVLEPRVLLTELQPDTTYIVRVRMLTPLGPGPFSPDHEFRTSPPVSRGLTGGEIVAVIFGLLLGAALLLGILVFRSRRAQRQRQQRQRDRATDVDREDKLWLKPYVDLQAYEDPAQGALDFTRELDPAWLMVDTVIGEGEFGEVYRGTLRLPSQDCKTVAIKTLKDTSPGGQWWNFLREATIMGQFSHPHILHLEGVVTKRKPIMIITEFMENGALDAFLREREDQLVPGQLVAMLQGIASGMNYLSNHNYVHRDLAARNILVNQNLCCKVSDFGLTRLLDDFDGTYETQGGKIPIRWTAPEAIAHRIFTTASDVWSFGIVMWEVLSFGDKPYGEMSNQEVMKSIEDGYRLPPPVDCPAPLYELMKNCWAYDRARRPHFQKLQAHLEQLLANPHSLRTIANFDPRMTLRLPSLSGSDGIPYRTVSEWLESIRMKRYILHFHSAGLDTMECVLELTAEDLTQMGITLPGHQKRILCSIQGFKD

Ephrin type-B receptor 4 = biological target: T3, Ephrin type-B receptor 4 (Homo sapiens, UniProt P54760)
T3 sequence (P54760 whole entry): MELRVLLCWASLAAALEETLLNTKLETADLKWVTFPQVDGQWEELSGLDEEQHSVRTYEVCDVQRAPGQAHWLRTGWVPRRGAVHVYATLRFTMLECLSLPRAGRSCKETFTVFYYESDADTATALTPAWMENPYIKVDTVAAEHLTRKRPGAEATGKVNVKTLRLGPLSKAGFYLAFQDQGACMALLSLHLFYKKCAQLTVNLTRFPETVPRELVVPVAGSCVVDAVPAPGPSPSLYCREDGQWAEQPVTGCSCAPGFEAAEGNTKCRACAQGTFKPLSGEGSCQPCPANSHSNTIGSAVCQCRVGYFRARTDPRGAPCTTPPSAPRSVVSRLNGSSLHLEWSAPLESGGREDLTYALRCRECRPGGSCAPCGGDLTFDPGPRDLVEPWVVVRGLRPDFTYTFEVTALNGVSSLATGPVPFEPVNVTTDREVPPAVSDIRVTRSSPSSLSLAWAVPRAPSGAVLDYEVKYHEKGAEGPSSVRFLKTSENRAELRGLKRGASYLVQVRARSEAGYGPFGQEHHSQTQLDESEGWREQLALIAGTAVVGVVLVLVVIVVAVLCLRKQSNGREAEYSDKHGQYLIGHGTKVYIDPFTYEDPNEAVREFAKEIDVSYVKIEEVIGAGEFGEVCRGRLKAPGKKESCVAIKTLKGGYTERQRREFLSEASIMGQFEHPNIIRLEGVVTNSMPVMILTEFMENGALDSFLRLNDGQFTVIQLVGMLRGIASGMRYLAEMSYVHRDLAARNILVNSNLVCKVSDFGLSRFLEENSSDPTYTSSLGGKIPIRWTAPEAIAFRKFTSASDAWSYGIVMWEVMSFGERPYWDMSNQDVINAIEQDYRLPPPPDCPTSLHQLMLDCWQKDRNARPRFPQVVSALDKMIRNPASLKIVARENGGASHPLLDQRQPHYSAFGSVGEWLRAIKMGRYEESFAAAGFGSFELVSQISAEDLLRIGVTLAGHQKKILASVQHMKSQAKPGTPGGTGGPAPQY

[2] = biological target: Mitogen-activated protein kinase 8 (Homo sapiens, UniProt P45983)
[3] = biological target: Glycogen synthase kinase-3 beta (Homo sapiens, UniProt P49841)
[4] = biological target: STE20-like serine/threonine-protein kinase (Homo sapiens, UniProt Q9H2G2)
Note: in the data inactive means no Kd found up to 30 µM.

Sequence of Glycogen synthase kinase-3 beta (P49841 whole entry): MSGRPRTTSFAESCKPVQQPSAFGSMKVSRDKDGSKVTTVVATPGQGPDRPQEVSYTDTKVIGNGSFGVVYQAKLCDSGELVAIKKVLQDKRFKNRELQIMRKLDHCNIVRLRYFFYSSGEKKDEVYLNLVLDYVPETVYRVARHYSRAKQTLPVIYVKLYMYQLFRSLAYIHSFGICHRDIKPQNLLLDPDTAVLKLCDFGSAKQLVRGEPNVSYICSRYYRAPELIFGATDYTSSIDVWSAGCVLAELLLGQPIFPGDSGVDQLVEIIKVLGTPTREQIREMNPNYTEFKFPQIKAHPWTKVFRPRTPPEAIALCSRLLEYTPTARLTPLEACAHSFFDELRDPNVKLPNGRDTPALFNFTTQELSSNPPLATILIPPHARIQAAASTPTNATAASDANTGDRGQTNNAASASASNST
Sequence of TRAF2 and NCK-interacting protein kinase (Q9UKE5 whole entry): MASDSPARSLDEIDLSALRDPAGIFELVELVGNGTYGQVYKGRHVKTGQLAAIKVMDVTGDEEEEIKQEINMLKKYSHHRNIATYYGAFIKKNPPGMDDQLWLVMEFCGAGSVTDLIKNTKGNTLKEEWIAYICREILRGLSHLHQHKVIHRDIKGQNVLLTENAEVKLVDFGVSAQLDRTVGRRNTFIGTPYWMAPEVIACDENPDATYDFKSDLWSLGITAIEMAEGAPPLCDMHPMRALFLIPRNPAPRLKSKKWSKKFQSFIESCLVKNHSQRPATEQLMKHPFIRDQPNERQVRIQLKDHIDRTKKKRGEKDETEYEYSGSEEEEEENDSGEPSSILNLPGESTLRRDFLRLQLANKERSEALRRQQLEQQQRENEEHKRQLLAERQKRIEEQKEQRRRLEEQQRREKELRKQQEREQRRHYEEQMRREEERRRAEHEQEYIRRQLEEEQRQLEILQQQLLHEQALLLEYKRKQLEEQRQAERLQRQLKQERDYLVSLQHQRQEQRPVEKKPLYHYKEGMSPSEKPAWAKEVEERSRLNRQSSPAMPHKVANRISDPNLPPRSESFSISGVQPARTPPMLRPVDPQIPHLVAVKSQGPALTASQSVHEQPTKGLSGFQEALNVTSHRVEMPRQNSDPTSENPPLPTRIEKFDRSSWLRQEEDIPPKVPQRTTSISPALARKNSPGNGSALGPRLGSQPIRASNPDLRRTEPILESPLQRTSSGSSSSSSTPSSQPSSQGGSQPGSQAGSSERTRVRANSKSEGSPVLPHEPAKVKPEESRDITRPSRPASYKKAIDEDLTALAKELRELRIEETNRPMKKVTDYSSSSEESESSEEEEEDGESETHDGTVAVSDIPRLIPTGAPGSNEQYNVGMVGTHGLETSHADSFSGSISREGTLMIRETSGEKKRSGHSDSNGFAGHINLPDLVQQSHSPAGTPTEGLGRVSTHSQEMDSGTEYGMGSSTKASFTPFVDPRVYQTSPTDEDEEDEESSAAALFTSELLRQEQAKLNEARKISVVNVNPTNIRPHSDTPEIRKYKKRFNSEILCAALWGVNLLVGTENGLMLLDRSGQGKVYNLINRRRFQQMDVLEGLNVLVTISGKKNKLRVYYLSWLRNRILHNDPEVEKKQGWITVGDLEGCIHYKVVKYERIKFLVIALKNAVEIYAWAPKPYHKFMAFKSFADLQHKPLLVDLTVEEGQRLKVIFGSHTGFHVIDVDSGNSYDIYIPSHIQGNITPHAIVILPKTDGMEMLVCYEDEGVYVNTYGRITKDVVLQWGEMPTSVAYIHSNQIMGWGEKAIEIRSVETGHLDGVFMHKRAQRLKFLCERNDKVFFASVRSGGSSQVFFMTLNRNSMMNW
Sequence of STE20-like serine/threonine-protein kinase (Q9H2G2 whole entry): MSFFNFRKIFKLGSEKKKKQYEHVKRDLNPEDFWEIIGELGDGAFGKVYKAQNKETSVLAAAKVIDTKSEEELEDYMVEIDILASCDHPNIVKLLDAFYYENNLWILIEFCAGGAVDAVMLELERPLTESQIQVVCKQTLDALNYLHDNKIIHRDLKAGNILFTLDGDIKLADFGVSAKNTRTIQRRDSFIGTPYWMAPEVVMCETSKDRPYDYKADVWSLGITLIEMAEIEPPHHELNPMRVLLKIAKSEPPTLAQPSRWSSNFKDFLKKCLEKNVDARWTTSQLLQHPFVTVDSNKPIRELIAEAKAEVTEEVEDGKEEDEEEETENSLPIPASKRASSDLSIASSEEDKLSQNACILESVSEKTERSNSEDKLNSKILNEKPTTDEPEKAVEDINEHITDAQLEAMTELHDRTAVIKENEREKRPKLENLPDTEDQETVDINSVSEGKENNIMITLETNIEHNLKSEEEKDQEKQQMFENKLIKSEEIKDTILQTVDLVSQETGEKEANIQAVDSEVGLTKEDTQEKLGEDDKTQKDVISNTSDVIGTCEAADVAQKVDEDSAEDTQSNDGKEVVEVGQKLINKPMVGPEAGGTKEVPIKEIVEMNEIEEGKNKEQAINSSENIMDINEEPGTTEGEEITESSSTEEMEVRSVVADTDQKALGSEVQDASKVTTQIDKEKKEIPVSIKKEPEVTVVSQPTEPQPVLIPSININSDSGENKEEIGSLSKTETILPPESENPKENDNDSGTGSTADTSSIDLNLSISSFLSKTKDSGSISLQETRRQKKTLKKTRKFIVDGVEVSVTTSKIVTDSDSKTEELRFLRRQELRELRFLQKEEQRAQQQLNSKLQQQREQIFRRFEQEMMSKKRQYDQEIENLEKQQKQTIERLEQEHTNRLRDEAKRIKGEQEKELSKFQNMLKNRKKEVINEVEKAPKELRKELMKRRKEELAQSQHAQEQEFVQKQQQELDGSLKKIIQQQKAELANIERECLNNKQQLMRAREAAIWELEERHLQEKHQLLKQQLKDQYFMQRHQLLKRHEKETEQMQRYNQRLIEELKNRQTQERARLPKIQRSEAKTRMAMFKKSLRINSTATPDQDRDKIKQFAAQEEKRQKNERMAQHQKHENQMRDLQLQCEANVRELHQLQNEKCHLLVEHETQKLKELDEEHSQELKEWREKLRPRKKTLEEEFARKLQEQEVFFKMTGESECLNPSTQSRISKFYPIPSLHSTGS
Sequence of Mitogen-activated protein kinase 8 (P45983 whole entry): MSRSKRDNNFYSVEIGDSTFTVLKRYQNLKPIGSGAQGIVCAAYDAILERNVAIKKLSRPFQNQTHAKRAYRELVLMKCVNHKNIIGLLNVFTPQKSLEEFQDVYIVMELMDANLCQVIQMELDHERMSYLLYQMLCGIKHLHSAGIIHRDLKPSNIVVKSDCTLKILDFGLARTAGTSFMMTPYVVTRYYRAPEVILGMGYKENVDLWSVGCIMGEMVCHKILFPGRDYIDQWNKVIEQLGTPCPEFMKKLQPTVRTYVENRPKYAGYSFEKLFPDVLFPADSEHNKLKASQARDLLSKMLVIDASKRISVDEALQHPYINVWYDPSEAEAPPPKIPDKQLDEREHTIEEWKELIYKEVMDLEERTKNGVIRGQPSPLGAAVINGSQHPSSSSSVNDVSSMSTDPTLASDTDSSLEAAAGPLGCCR

Row | SMILES | Kd [1] | Kd (Activin receptor type-1B) | Kd (Ephrin type-A receptor 1) | Kd (Ephrin type-B receptor 4) | Kd [2] | Kd [3] | Kd [4]
1 | Cc1cc(Nc2ncc(Cl)c(Nc3ccccc3S(=O)(=O)C(C)C)n2)c(OC(C)C)cc1C1CCNCC1 [CERITINIB] | > 30 µM (inactive) | > 30 µM (inactive) | > 30 µM (inactive) | > 30 µM (inactive) | > 30 µM (inactive) | > 30 µM (inactive) | > 30 µM (inactive)
2 | Cc1nc2cc(-n3ncc(C(=O)c4cc5ccccc5[nH]4)c3N)ccc2[nH]1 [FGFR INHIBITOR DEBIO 1347] | > 30 µM (inactive) | > 30 µM (inactive) | > 30 µM (inactive) | > 30 µM (inactive) | > 30 µM (inactive) | > 30 µM (inactive) | > 30 µM (inactive)
3 | C[C@@H](N)c1ccc(C(=O)Nc2ccnc3[nH]ccc23)cc1 [Y-39983] | > 30 µM (inactive) | > 30 µM (inactive) | > 30 µM (inactive) | > 30 µM (inactive) | > 30 µM (inactive) | 0.924 µM (active) | > 30 µM (inactive)
4 | N#CC1(c2ccc(NC(=O)c3cccnc3NCc3ccncc3)cc2)CCCC1 [RIVOCERANIB] | > 30 µM (inactive) | > 30 µM (inactive) | > 30 µM (inactive) | > 30 µM (inactive) | > 30 µM (inactive) | > 30 µM (inactive) | > 30 µM (inactive)
5 | CCNC(=O)C#Cc1ccc2c(c1)NC(=O)/C2=C(\Nc1ccc(CN(C)C)cc1)c1ccccc1 | > 30 µM (inactive) | > 30 µM (inactive) | > 30 µM (inactive) | > 30 µM (inactive) | > 30 µM (inactive) | > 30 µM (inactive) | 1.49 µM (active)
6 | CC(C)c1cc(CNc2nc(Nc3cc(C4CC4)[nH]n3)cc(N3CCN(C)CC3)n2)on1 [XL-228] | 0.184 µM | > 30 µM (inactive) | 0.005 µM (active) | 0.292 µM (active) | > 30 µM (inactive) | > 30 µM (inactive) | 0.138 µM (active)
7 | CO[C@H]1C[C@@H]2CC[C@@H](C)[C@@](O)(O2)C(=O)C(=O)N2CCCC[C@H]2C(=O)O[C@H]([C@H](C)C[C@@H]2CC[C@@H](O)[C@H](OC)C2)CC(=O)[C@H](C)/C=C(\C)[C@@H](O)[C@@H](OC)C(=O)[C@H](C)C[C@H](C)/C=C/C=C/C=C/1C [SIROLIMUS] | > 30 µM (inactive) | > 30 µM (inactive) | > 30 µM (inactive) | > 30 µM (inactive) | > 30 µM (inactive) | > 30 µM (inactive) | > 30 µM (inactive)
8 | O=C(Nc1cc(C(F)(F)F)cc(C(F)(F)F)c1)c1cc(Cl)ccc1O [IMD-0354] | > 30 µM (inactive) | > 30 µM (inactive) | > 30 µM (inactive) | > 30 µM (inactive) | > 30 µM (inactive) | > 30 µM (inactive) | > 30 µM (inactive)
9 | Cc1cc(Nc2ncnc3ccc(NC4=NC(C)(C)CO4)cc23)ccc1Oc1ccn2ncnc2c1 [TUCATINIB] | > 30 µM (inactive) | > 30 µM (inactive) | > 30 µM (inactive) | > 30 µM (inactive) | > 30 µM (inactive) | > 30 µM (inactive) | > 30 µM (inactive)
